A short description of test [1]: Luminescence Cell-Based Dose Retest to Confirm Inhibitors of Cancer Stem Cells. [Related pubchem assays (depositor defined):AID2717, AID2721]. The class given is functional. The conditions noted are these: Homo sapiens.
Test [2] has as its target T1, Rac GTPase-activating protein 1 (Homo sapiens, UniProt Q9H0H5).
T1 sequence (Q9H0H5 whole entry): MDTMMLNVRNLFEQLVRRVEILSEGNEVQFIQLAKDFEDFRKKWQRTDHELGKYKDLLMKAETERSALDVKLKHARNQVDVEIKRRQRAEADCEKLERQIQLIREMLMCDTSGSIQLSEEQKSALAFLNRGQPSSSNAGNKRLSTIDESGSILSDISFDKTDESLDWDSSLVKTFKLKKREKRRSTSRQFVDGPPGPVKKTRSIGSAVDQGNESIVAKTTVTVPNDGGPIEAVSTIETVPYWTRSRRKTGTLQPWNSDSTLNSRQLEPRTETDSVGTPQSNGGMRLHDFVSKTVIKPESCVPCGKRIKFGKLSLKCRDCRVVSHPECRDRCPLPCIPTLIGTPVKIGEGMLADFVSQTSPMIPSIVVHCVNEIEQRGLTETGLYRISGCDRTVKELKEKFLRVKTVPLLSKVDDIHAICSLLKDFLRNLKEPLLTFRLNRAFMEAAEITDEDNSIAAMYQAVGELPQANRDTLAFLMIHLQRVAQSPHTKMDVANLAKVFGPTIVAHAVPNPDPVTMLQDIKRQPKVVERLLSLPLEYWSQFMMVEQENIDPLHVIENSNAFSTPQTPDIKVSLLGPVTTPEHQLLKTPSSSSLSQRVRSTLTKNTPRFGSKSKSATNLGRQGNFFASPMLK
The experiment in a line: blockers of MgcRacGAP-driven Rac1 GTP hydrolysis – biochemical, ADP Hunter fluorescence, primary and confirmatory, confirmation (AID 624330). The class given is functional.

Test [3] is described as follows: viability of uninfected HEp-2 cells – cell-based, HTS, cytotoxicity control for RSV inhibitor project, dose response (AID 2410). The conditions noted are these: human respiratory syncytial virus. The class given is functional.
The nature of test [4]: Trypanosoma cruzi growth suppression in host cells – NIH3T3 host cells, beta-gal luminescence, confirmation (AID 2044).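 Note: intracellular parasites grown in NIH/3T3 mouse fibroblasts as host cells; luminescent beta-galactosidase reporter signal from transgenic T. cruzi replicating inside host cells; inhibitors lower the luminescence signal.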 It counts as functional, cell-based.
Test [5] can be described thus: NIH3T3 cell viability loss – ATP luminescence, mouse fibroblasts, counter-screen, dose response (AID 2010).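 Note: cells exposed to compound for about 90 hours before reading.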 The class given is functional, cell-based. (A counterscreen serves to expose hits that act by an unwanted route or on another target.)
Test [6] deals with T2, Corticotropin-releasing factor receptor 2/Corticotropin-releasing factor-binding protein (Homo sapiens, UniProt P24387+Q13324).
T2 sequence (Q13324 whole entry): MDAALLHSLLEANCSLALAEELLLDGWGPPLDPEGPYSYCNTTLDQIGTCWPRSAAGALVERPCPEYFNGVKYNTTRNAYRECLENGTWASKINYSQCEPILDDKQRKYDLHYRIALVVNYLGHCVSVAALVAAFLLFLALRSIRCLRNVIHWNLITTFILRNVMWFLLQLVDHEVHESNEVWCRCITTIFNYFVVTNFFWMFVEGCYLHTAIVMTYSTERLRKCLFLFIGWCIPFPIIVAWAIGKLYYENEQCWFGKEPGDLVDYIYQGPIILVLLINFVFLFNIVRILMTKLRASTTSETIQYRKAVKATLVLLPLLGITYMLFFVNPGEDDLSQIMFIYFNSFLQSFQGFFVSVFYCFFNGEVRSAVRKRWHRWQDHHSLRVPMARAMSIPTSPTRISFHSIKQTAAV
T2 sequence (P24387 whole entry): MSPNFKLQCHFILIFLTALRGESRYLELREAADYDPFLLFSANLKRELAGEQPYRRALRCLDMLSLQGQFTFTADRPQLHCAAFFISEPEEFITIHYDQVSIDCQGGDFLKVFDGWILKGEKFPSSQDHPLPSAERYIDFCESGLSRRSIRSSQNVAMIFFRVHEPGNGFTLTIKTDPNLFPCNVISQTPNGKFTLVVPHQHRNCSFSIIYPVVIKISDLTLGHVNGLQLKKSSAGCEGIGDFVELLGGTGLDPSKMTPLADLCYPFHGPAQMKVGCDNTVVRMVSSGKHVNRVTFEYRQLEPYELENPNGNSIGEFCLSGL
The experiment in a line: activators of CRF receptor 2 with binding protein – uHTS hits, confirmation (AID 602473). It counts as functional. The following applies: read-out: EC50_Mean.

Test [7] relates to Streptococcus. The experiment in a line: GAS UMAA2166 growth inhibition – luminescence, BacTiterGlo, counter-screen for streptokinase expression inhibitor project, dose response (AID 1915).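 Note: potency for reduction of bacterial viability or growth.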 The class given is functional, organism-based.
The test system of test [8] is Streptococcus sp. 'group A'. Put plainly: Streptococcus pyogenes SK(-)GAS viability under kanamycin – luminescence, BacTiterGlo, confirmation, counter-screen for streptokinase expression inhibitor project, dose response (AID 1900). It counts as functional, organism-based.

Calls of active or inactive are those of the source. Bounds are passed on as bounds.
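Throughout, for AC50: cells exposed to compound for roughly 70 hours or longer before luminescence read.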

As a reminder, the AC50 is the midpoint of the concentration-response curve, whichever way the signal moves. Take `Cc1nnc(-c2ccc(Oc3ccc(Cl)cc3)c([N+](=O)[O-])c2)o1`: in test [1], the concentration at half-maximal activity (AC50) is < 0.16 µM (active).

One may read the IC50 as the point on the concentration scale where inhibition reaches its midpoint. As to `CCOc1cc(/C=C2\C(=O)N(Cc3ccco3)C(C)=C2C(=O)OC)ccc1O`, in test [2], the concentration for half-maximal inhibition (IC50) was 69.9 µM (active).

Broadly, the CC50 is the concentration giving 50% cytotoxicity. Turning to `COc1ccc(Cc2nc3ccc(C(=O)NCCc4cccc(C)n4)cc3o2)cc1`, the half-maximal cytotoxic concentration (CC50) in test [3] was 19.7 µM (active).

Regarding `Cc1ccc(NC(=O)c2ccc(NCCCN3CCOCC3)c([N+](=O)[O-])c2)cc1Cl`, the half-maximal cytotoxic concentration (CC50) in test [3] is 12.8 µM (active).

In the case of `Cc1cccc(N(C)Cc2nnc(-c3cccc(Br)c3)o2)c1`, the CC50 in test [3] is 33.1 µM (active).

As for `CS(=O)(=O)N1CCN(C2C3CC4CC(C3)CC2C4)CC1` (configuration not stated), the 50% inhibitory concentration (IC50) in test [2] is 152 µM (active).

For the compound `Oc1ccc2ccccc2c1Br`, the concentration for half-maximal inhibition (IC50) in test [2] was 20.3 µM (active).

With `COC(=O)c1cccc(Nc2cc(C)nc(-c3ccccc3O)n2)c1`, the EC50 in test [4] is 2.74 µM (active); in test [5], 7.5 µM (active). Moreover, the AC50 in test [1] was 1.75 µM (active).

For the compound `Cc1ccc(S(=O)(=O)N[C@H](C(=O)OCC(=O)N2N=C(c3ccc(Cl)cc3)CC2c2ccco2)C(C)C)cc1` (some centres not stated), in test [3], the cytotoxic concentration (CC50) is > 50 µM (active). In addition, the EC50 in test [6] is > 53 µM (inactive).

Consider `COc1ccc(-c2cn(CCc3c[nH]c4ccccc34)nn2)cc1`, for which the AC50 in test [1] is 2.86 µM (active).

Consider `O=C(CN1CCN(c2ncccn2)CC1)N1CCCC1`, for which the IC50 in test [2] was 176 µM (active).

Turning to `CC1CCN(c2nc(-c3cccnc3)nc3scc(-c4ccccc4)c23)CC1`, the AC50 in test [1] was 1.36 µM (active).

Take `Cc1ccc(C)c(Cc2c(C)nc3c(C(=O)NCc4ccc5c(c4)OCO5)cnn3c2C)c1`: the EC50 in test [4] is 1.61 µM (active); in test [5], > 60 µM (not active). In test [1], the half-maximal activity concentration (AC50) was 4.98 µM (active).

Consider `CCCCCn1cc[n+](C2=C([N-]S(=O)(=O)c3ccc(Br)cc3)C(=O)c3ccccc3C2=O)c1`, for which the figures for the EC50 in test [7] and in test [8] were 6.33 µM (active) and 4.17 µM (active), respectively.

For the compound `Cc1cc(C)c2nc(N3CCCC(C(=O)N4CCN(c5ncccn5)CC4)C3)sc2c1` (configuration not stated), in test [1], the half-maximal activity concentration (AC50) was 5.98 µM (active).

In the case of `Cc1ccc(C(=O)Nc2cc(C(C)C)c(O)c(C(C)C)c2)cc1`, the CC50 in test [3] was 32 µM (active).

Consider `O=C(/C=C/c1ccccc1)OCCNC1=NS(=O)(=O)c2ccccc21`, for which the cytotoxic concentration (CC50) in test [3] was 36.4 µM (active).

Consider `CCOC(=O)c1ccc2[nH]c3c(c2c1)CCCC3NC=O` (configuration not stated), for which the CC50 in test [3] was 36 µM (active).

For the compound `C=C[C@@H]1c2cc(C)ccc2N(S(=O)(=O)c2ccc(C)cc2)[C@H](c2ccc(OC(C)=O)cc2)C1(C#N)C#N`, in test [1], the concentration at half-maximal activity (AC50) was 0.804 µM (active).

In the case of `CN(C)/N=C/C=C1\CCC/C(=C\c2ccc(F)c(F)c2)C1=O`, the AC50 in test [1] is 8.22 µM (active).

As for `COc1cc(/C=N/Nc2nc(C)cc(O)n2)ccc1O`, the IC50 in test [2] was 23.9 µM (active).

On to `CCOc1cc(/C=N/N2CCN(Cc3ccccc3)CC2)ccc1O`, for which, in test [2], the IC50 is 86.7 µM (active).

Turning to `CCCn1c(=O)c(C(=O)N/N=C/c2ccc(F)cc2)c(O)c2ccccc21`, the EC50 in test [7] is 3.31 µM (active); in test [8], 1.99 µM (active).

For the compound `O/N=C1\CCCc2ccc(Cl)cc21`, the CC50 in test [3] is 19.5 µM (active).

Turning to `CCCCNCC(O)(c1ccc(Cl)cc1)c1ccc(Cl)cc1`, in test [3], the CC50 is 7.11 µM (active).

Values taken from ChEMBL document CHEMBL1201862, “PubChem BioAssay data set” (2004).
